Experimental data published in ChEMBL document CHEMBL1201862, “PubChem BioAssay data set” (2004).
Activity calls are given as the source filed them.

Columns and labels:
[1] = inhibitors of EBV LMP1 NF-kappaB signaling – cell-based, luciferase reporter, luminescence, dry powder, set 2, dose response (AID 624376); type: functional
Albumin = Albumin (Bos taurus, UniProt P02769); assay: Counterscreen for inhibitors of T-cell receptor (TCR)-CD3 interaction: Fluorescence-based biochemical high throughput dose response assay to identify inhibitors of T-cell receptor (TCR)-CD3 interaction using a TAMRA-labeled BSA probe.; type: functional
HeLa = assay: viability loss in HeLa cells – cell-based, ATP luminescence, cherry-pick samples, cytotoxicity control, dose response (AID 687004); type: functional; conditions: Homo sapiens
[2] = biological target: Potassium channel subfamily K member 9 (Homo sapiens, UniProt Q9NPC2); assay: KCNK9 flux blockade, concentration-response – cell-based, FluxOR thallium flux, selectivity assay for TASK1 inhibitor project, SAR follow-up (AID 652211); type: functional;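 also: potency is for inhibitors of the channel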
[3] = biological target: T1, Botulinum neurotoxin type A (Clostridium botulinum (strain Hall / ATCC 3502 / NCTC 13319 / Type A), UniProt P0DPI1); assay: High-throughput multiplex microsphere dose response for inhibitors of toxin protease, specifically Botulinum neurotoxin light chain A protease, compounds from Powder Set 01.; type: functional, Clostridium botulinum A str. ATCC 3502; conditions: read-out: EC50_MICROM
[4] = biological target: T1, Botulinum neurotoxin type A; assay: Confirmatory FRET assay using full length substrates for Botulinum neurotoxin light chain A protease, with Powder Set01.; type: functional
[5] = HEK-293T cell viability reduction – luminescence, B-cell screen hits, cytotoxicity control for BCR NF-kB inhibitor project, dose response (AID 489021); type: functional, cell-based;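 also: HEK-293T cells carrying an NF-kB luciferase reporter; cells exposed to compound for about 14 hours before viability readout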
[6] = biological target: T2, Sentrin-specific protease 1 (Homo sapiens, UniProt Q9P0U3); assay: Dose response confirmation of small molecule inhibitors of the catalytic domain of the SUMO protease, SENP1 in a FRET assay.; type: functional; conditions: read-out: IC50_Mean
[7] = biological target: T2, Sentrin-specific protease 1; assay: SENP1 catalytic domain blockers, concentration series – biochemical, kinetic FRET, dose response (AID 651697); type: functional; conditions: read-out: IC50_Mean
[8] = MITF Orthogonal Assay: SK-MEL-5 CTG Assay Measured in Cell-Based System Using Plate Reader - 2084-02_Inhibitor_Dose_DryPowder_Activity_Set7.; type: functional
[9] = MITF: Counter assay: A375 proliferation Measured in Cell-Based System Using Plate Reader - 2084-03_Inhibitor_Dose_DryPowder_Activity_Set8.; type: functional; conditions: A-375
[10] = viability loss in HEK293 kidney cells – cell-based, cherry-picks, set 5, cytotoxicity control, dose response (AID 1053117); type: functional

T2 sequence (Q9P0U3 whole entry, the tested form may be a part): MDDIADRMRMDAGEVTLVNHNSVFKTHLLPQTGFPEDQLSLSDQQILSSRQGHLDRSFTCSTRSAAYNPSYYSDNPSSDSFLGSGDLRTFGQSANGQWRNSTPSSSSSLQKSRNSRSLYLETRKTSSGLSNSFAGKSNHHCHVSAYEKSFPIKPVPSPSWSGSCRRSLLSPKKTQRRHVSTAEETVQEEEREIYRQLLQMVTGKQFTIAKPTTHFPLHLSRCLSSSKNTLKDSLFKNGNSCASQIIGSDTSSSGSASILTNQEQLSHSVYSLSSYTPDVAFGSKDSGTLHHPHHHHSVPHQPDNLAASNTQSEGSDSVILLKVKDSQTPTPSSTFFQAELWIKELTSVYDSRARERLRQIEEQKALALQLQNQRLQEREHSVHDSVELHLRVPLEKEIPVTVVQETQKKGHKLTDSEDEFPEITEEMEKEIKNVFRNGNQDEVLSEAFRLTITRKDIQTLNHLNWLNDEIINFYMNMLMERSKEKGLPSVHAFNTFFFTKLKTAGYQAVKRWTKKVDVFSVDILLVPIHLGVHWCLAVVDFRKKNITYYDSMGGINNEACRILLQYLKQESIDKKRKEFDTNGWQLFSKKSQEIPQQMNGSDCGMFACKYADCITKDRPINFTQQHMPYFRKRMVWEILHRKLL
T1 sequence (P0DPI1 2-448 limits assumed): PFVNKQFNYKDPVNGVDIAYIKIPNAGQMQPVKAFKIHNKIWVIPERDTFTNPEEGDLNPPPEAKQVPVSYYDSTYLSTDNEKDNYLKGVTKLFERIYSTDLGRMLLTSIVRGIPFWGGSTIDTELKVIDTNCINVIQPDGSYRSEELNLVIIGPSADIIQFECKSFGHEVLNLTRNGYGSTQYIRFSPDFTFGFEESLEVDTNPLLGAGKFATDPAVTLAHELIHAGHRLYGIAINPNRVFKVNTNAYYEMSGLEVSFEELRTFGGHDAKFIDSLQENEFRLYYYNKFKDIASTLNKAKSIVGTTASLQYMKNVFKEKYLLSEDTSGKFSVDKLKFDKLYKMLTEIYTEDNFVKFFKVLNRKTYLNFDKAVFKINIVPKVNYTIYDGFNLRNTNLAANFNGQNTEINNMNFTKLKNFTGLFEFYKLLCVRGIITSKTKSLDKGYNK
Sequence of Albumin (P02769 whole entry): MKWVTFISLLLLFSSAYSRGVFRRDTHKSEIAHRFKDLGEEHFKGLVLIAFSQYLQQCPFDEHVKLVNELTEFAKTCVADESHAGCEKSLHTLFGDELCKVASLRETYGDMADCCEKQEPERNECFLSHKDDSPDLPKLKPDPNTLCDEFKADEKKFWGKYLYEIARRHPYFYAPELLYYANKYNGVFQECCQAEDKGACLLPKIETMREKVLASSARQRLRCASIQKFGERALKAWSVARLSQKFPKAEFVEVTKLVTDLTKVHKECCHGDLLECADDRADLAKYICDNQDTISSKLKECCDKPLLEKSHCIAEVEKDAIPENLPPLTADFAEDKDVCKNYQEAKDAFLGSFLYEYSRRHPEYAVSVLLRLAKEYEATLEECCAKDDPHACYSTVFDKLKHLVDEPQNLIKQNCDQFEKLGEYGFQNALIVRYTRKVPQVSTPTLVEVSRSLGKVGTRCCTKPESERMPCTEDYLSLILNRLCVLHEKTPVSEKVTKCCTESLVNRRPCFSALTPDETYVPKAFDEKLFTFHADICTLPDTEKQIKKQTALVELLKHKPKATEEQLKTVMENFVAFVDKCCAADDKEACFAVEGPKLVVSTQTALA
Sequence of Potassium channel subfamily K member 9 (Q9NPC2 whole entry): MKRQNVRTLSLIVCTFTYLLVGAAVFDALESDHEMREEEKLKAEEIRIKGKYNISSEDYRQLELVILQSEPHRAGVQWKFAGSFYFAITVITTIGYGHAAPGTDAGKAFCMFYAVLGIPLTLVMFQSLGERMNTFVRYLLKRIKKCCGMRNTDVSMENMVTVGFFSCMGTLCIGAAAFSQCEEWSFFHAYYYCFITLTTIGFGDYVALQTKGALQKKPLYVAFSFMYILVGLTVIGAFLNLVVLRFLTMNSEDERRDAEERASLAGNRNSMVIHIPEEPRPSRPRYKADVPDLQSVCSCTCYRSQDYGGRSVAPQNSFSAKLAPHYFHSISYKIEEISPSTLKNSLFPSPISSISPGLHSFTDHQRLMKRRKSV

C[C@H](NC(=O)C[C@H]1C[C@@H]2c3cc(NC(=O)c4cccnc4)ccc3O[C@@H]2[C@@H](CO)O1)c1ccccc1
AbsAC35 [1]: 164.54 µM

O=C(NNC(=O)c1ccc2ccccc2c1O)c1cccs1
IC50 (Albumin): > 94.1 µM (inactive)

N#Cc1ccc(-c2ccc3c(c2)[C@H]2[C@H](CCN2C(=O)Cc2ccccc2)[C@@H](CO)N3)cc1
AC50 (HeLa): 28.5 µM (active)

COc1cccc(C(=O)Nc2cccc(NC(=O)c3cccc(C)c3)c2)c1
IC50 [2]: 29.3 µM (active)

O=[N+]([O-])c1ccc([N+]2=N[C-](c3ccccc3)CC2c2ccccc2)cc1 (configuration not stated)
EC50 [3]: 0.3 µM (active) | EC50 [4]: 1.1 µM (active)

N#CC1=C(N)Oc2cc(Nc3ccccc3)ccc2C1c1ccncc1 (configuration not stated)
IC50 [5]: 48.3 µM (inactive) | IC50 [6]: 30.5 µM (inactive) | IC50 [7]: 41.9 µM (inactive)

O=C1C=C(NCc2ccccc2)C(=O)c2ccccc21
AC50 [8]: 7.74 µM (active) | AC50 [9]: > 70 µM (inactive)

CN(C)C(=O)c1ccc(-c2ccc3c(c2)[C@@H]2[C@@H](CCN2C(=O)c2ccc(F)cc2)[C@H](CO)N3C)cc1
AC50 [10]: > 52 µM (inactive)
